Here are results for 19 molecules from ChEMBL document CHEMBL1153043, “Synthesis and evaluation of 1-(benzo[b]thiophen-2-yl)ethanone analogues as novel anti-osteoporosis agents acting on BMP-2 promotor” (Bioorg Med Chem Lett, 2009).

Structures are written as SMILES.

Test [1] can be described thus: Enhancement of BMP-2 expression in mouse MC3T3-E1 cells assessed as upregulation rate at 4 uM. The test is classed as functional, cell-based.
The test system of test [2] is Rattus norvegicus. Briefly: Antiosteoporotic activity in ovariectomized Sprague-Dawley rat assessed as trabecula resorption surface at 10 mg/kg/day, po for 90 days by bone histomorphometry. The test is classed as functional.
Test [3] concerns Rattus norvegicus. The test can be described thus: Antiosteoporotic activity in ovariectomized Sprague-Dawley rat assessed as trabecula resorption surface at 20 mg/kg/day, po for 90 days by bone histomorphometry. The test is classed as functional.
The subject of test [4] is Rattus norvegicus. Briefly: Antiosteoporotic activity in ovariectomized Sprague-Dawley rat assessed as trabecula resorption surface at 40 mg/kg/day, po for 90 days by bone histomorphometry. Type of test: functional.
The test system of test [5] is Rattus norvegicus. Briefly: Antiosteoporotic activity in ovariectomized Sprague-Dawley rat assessed as trabecula formation surface at 10 mg/kg/day, po for 90 days by bone histomorphometry. Type of test: functional.
The test system of test [6] is Rattus norvegicus. Briefly: Antiosteoporotic activity in ovariectomized Sprague-Dawley rat assessed as trabecula formation surface at 20 mg/kg/day, po for 90 days by bone histomorphometry. Type of test: functional.
The subject of test [7] is Rattus norvegicus. The test can be described thus: Antiosteoporotic activity in ovariectomized Sprague-Dawley rat assessed as trabecula formation surface at 40 mg/kg/day, po for 90 days by bone histomorphometry. Type of test: functional.
Test [8] concerns Rattus norvegicus. Briefly: Antiosteoporotic activity in ovariectomized Sprague-Dawley rat assessed as mineral apposition rate at 10 mg/kg/day, po for 90 days by bone histomorphometry. Type of test: functional.
Test [9] relates to Rattus norvegicus. The test can be described thus: Antiosteoporotic activity in ovariectomized Sprague-Dawley rat assessed as mineral apposition rate at 20 mg/kg/day, po for 90 days by bone histomorphometry. Type of test: functional.
Test [10] has as its system Rattus norvegicus. The test can be described thus: Antiosteoporotic activity in ovariectomized Sprague-Dawley rat assessed as mineral apposition rate at 40 mg/kg/day, po for 90 days by bone histomorphometry. The test is classed as functional.
The subject of test [11] is Rattus norvegicus. Briefly: Antiosteoporotic activity in ovariectomized Sprague-Dawley rat assessed as osteo cortex mineralization rate at 10 mg/kg/day, po for 90 days by bone histomorphometry. The test is classed as functional.
The test system of test [12] is Rattus norvegicus. The test can be described thus: Antiosteoporotic activity in ovariectomized Sprague-Dawley rat assessed as osteo cortex mineralization rate at 20 mg/kg/day, po for 90 days by bone histomorphometry. The test is classed as functional.
Test [13] concerns Rattus norvegicus. Briefly: Antiosteoporotic activity in ovariectomized Sprague-Dawley rat assessed as osteo cortex mineralization rate at 40 mg/kg/day, po for 90 days by bone histomorphometry. Type of test: functional.
In test [14] the test system is Rattus norvegicus. Briefly: Antiosteoporotic activity in ovariectomized Sprague-Dawley rat assessed as average osteoid width at 10 mg/kg/day, po for 90 days by bone histomorphometry. The test is classed as functional.
The subject of test [15] is Rattus norvegicus. Briefly: Antiosteoporotic activity in ovariectomized Sprague-Dawley rat assessed as average osteoid width at 20 mg/kg/day, po for 90 days by bone histomorphometry. The test is classed as functional.
Test [16] relates to Rattus norvegicus. The test can be described thus: Antiosteoporotic activity in ovariectomized Sprague-Dawley rat assessed as average osteoid width at 40 mg/kg/day, po for 90 days by bone histomorphometry. Type of test: functional.
For test [17], the system named is Rattus norvegicus. Briefly: Antiosteoporotic activity in ovariectomized Sprague-Dawley rat assessed as trabecular bone volume at 10 mg/kg/day, po for 90 days by bone histomorphometry. The test is classed as functional, Trabecula.
Test [18] deals with Rattus norvegicus. Briefly: Antiosteoporotic activity in ovariectomized Sprague-Dawley rat assessed as trabecular bone volume at 20 mg/kg/day, po for 90 days by bone histomorphometry. Type of test: functional, Trabecula.
Test [19] deals with Rattus norvegicus. The test can be described thus: Antiosteoporotic activity in ovariectomized Sprague-Dawley rat assessed as trabecular bone volume at 40 mg/kg/day, po for 90 days by bone histomorphometry. Type of test: functional, Trabecula.
In test [20] the test system is Rattus norvegicus. The test can be described thus: Antiosteoporotic activity in ovariectomized Sprague-Dawley rat assessed as trabecula resorption surface at 5 mg/kg/day, po for 90 days by bone histomorphometry. Type of test: functional.
Test [21] has as its system Rattus norvegicus. The test can be described thus: Antiosteoporotic activity in ovariectomized Sprague-Dawley rat assessed as trabecula formation surface at 5 mg/kg/day, po for 90 days by bone histomorphometry. The test is classed as functional.
The test system of test [22] is Rattus norvegicus. The test can be described thus: Antiosteoporotic activity in ovariectomized Sprague-Dawley rat assessed as mineral apposition rate at 5 mg/kg/day, po for 90 days by bone histomorphometry. The test is classed as functional.
Test [23] deals with Rattus norvegicus. The test can be described thus: Antiosteoporotic activity in ovariectomized Sprague-Dawley rat assessed as osteo cortex mineralization rate at 5 mg/kg/day, po for 90 days by bone histomorphometry. Type of test: functional.
Test [24] relates to Rattus norvegicus. Briefly: Antiosteoporotic activity in ovariectomized Sprague-Dawley rat assessed as average osteoid width at 5 mg/kg/day, po for 90 days by bone histomorphometry. Type of test: functional.
In test [25] the test system is Rattus norvegicus. The test can be described thus: Antiosteoporotic activity in ovariectomized Sprague-Dawley rat assessed as trabecular bone volume at 5 mg/kg/day, po for 90 days by bone histomorphometry. Type of test: functional, Trabecula.
A short description of test [26]: Enhancement of BMP-2 expression in mouse MC3T3-E1 cells assessed as upregulation rate at 0.4 uM. The test is classed as functional, cell-based.

In the case of `CC(=O)c1cc2cc(C(F)(F)F)ccc2s1`, in test [1], the Activity came out at 18.5%.
As to `O=C(O)c1cc2ccccc2s1`, the Activity in test [1] was 10.8%.
`COc1cc2cc(C(C)=O)sc2cc1OC`: the Activity in test [1] was determined as 37.1%.
`CC(=O)c1cc2ccccc2o1`: the Activity was 7.84% in the test on Rattus norvegicus [2]; 7.15% in the test on Rattus norvegicus [3]; 5.3% in the test with Rattus norvegicus [4]; 7.26% in the test with Rattus norvegicus [5]; 6.75% in the test with Rattus norvegicus [6]; 6.74% in the test with Rattus norvegicus [7]. Also, the Activity with Rattus norvegicus [8] came to 2.31 µm/day; in the test on Rattus norvegicus [9] it was 2.34 µm/day; in the test on Rattus norvegicus [10], 2.2 µm/day; with Rattus norvegicus [11], 3.28 µm/day; in the test with Rattus norvegicus [12] it was 3.51 µm/day; in the test with Rattus norvegicus [13], 3.3 µm/day. Further, the Activity in the test with Rattus norvegicus [14] stood at 11.2 µm; in the test with Rattus norvegicus [15], 11.6 µm; in the test on Rattus norvegicus [16] it was 11 µm; in test [1], 33.5%; with Rattus norvegicus [17], 12.39%; in the test on Rattus norvegicus [18], 13.13%. The Activity in the test on Rattus norvegicus [19] turned out to be 17.5%.
`CC(=O)c1csc2ccccc12`: the Activity in test [1] worked out at 11.9%.
As to `NNC(=O)c1cc2ccccc2s1`, the Activity in test [1] was 7.8%.
In the case of `CC(=O)c1cc2c(Cl)c(C)ccc2s1`, in [1], the Activity was 39.8%.
Same read-out and setting: to `CC(=O)c1c[nH]c2ccccc12` belongs 22.8%.
Still for that read-out and setting: to `CC(=O)c1cc2c(Cl)cccc2s1` belongs 27.9%; to `CC(=O)c1sc2ccc(C)c(Cl)c2c1C`, 6.5%.
Consider `CC(=O)c1sc2ccc(C(F)(F)F)cc2c1C`, for which the Activity in [1] came to 16.7%.
As to `CC(=O)c1cc2cccc(C(F)(F)F)c2s1`, in test [1], the Activity came to 30.2%.
Consider `NC(=O)c1cc2ccccc2s1`, for which the Activity in [1] was 11.2%.
The same measure, in the same setting: to `COC(=O)c1cc2ccccc2s1` belongs 27.3%.
Turning to `O=C(c1ccc(OCCN2CCCCC2)cc1)c1c(-c2ccc(O)cc2)sc2cc(O)ccc12` [RALOXIFENE], the Activity came out at 3.34% in the test with Rattus norvegicus [20]; 6.52% with Rattus norvegicus [21]; 2.14 µm/day with Rattus norvegicus [22]; 3.15 µm/day in the test on Rattus norvegicus [23]; 11.1 µm with Rattus norvegicus [24]; 22.31% in the test with Rattus norvegicus [25].
For the molecule `CC[C@H](C)C(=O)O[C@H]1C[C@@H](C)C=C2C=C[C@H](C)[C@H](CC[C@@H]3C[C@@H](O)CC(=O)O3)[C@H]21`, the Activity in [26] is 20.9%.
Turning to `CC(=O)c1sc2ccccc2c1C`, in test [1], the Activity was found to be 28%.
For `CC(=O)c1cc2c(Cl)ccc(C)c2s1`, in test [1], the Activity is 32%.
Regarding `CC(=O)c1sc2cccc(Cl)c2c1C`, the Activity in test [1] is 16.5%.
